From US5726195A, “Aminoacyl adenylate mimics as novel antimicrobial and antiparasitic agents” (Cubist Pharmaceuticals, Inc., priority 1996, dated 1998)
Converted amounts (≈) assume the structure as drawn.

Legend:
[1] = target: E. Coli. IleRS (isoleucyl-tRNA synthetase) (Escherichia coli, UniProt P00956); assay: Inhibition of isoleucyl-tRNA synthetase (aminoacylation of tRNA with [3H]isoleucine); format: biochemical; details: E. coli enzyme; irreversible inhibitors: values are 50% of the active enzyme concentration; read-out: IC50 E.Coli. IleRS
Description: The extent of aminoacylation of tRNA with isoleucine catalyzed by isoleucyl-tRNA synthetase enzyme was measured by monitoring the incorporation of [3H] isoleucine into trichloroacetic acid-precipitable tRNA in the presence of a compound of Formula I, as compared with activity in the absence of inhibitor. The isoleucyl-tRNA synthetase enzymes are well known in the prior art and can be obtained and purified by known methods (for example see: D. Kern et at., Biochimie, 61, 1257-1272 (1979) and J. Gilbart et al., Antimicrobial Agents and Chemotherapy, 37 (1), 32-38 (1993)).
Isoleucyl-tRNA synthetase enzyme (0.08-2.0 nM, preferably, 0.4 nM) was first pre-incubated at 25° C. with 0.05 mg/ml bovine serum albumin, 10 mM DTT, 2.5% dimethyl sulfoxide, with or without a compound of Formula I, for 20 minutes. At this point a substrate solution (a solution containing the following: ATP, [^3 H]isoleucine, tRNA, HEPES, magnesium chloride, and potassium chloride) was added to give a final concentration of 0.0286 mg/ml bovine serum albumin, 5.7 mM DTT, 4 mM ATP, 5-20 μM [^3 H] isoleucine (1-15 Ci/mmol), 90 μM crude tRNA or 2 μM isoleucine specific tRNA, 1.4% dimethyl sulfoxide, 30 mM HEPES (pH 7.5), 10 mM magnesium chloride, and 50 mM potassium chloride and incubated at 25° C. Aliquots were removed at selected times (e.g. 5, 10, 20 minutes) and applied to 3MM filter paper discs (Whatman) and then dropped into 5% (wt/vol) trichloroacetic acid for >5 minutes. Filters were washed for three 10-minute periods in 5% trichloroacetic acid, rinsed in 95% ethanol and diethyl ether, and radioactivity was measured with Betafluor™ (National Diagnostics) by liquid scintillation counting.
Inhibitor activity is reported in Table II as an IC50 value (inhibitor concentration causing 50% inhibition of enzyme activity) per a known amount of active enzyme. In the case of irreversible inhibitors (1:1 stoichiometry) these values are 50% of the active enzyme concentration. The IC50 (in nM, E. coli) values of representative compounds of the present invention are listed in the second column of Table II.

[2] = tested on: S. pneumonia ATCC 49619; assay: Whole cell antimicrobial screen, MIC; format: cell-based
Description: (§1) Compounds were tested for antimicrobial activity against a panel of organisms according to standard procedures described by the National Committee for Clinical Laboratory Standards (NCCLS document M7-A3, Vol. 13, No. 25, 1993/NCCLS document M27-P, Vol. 12, No. 25, 1992). Compounds were dissolved in 100% dimethyl sulfoxide and were diluted to the final reaction concentration (0.1 μg/mL-500 μg/mL) in microbial growth media. In al cases the final concentration of dimethyl sulfoxide incubated with cells is less than or equal to 1%. For minimum inhibitory concentration (MIC) calculations, 2-fold dilutions of compounds were added to wells of a microtiter plate containing 5×10^4 bacteria or fungal cells in a final volume of 100 lambda of an appropriate media (Mueller-Hinton Broth; Haemophilus Test Media; Mueller-Hinton Broth+5% Sheep Blood; or […]). Plates were incubated overnight at an appropriate temperature (30° C.-37° C.) and optical densities (measure of cell growth) were measured using a commercial plate reader. The MIC value is defined as the lowest compound concentration inhibiting growth of the test organism.

[3] = tested on: S. pyogenes ATCC 8668; assay: Whole cell antimicrobial screen, MIC; format: cell-based; details: Streptococcus pyogenes, ATCC8668
Description: as §1

[4] = tested on: E. faecalis ATCC 33011; assay: Whole cell antimicrobial screen, MIC; format: cell-based; details: Enterococcus faecalis, ATCC33011
Description: as §1

[5] = tested on: S. aureus ATCC 14154; assay: Whole cell antimicrobial screen, MIC; format: cell-based; details: Staphylococcus aureus, ATCC14154
Description: as §1

[6] = tested on: S. aureus ATCC 6538P; assay: Whole cell antimicrobial screen, MIC; format: cell-based; details: Staphylococcus aureus, ATCC6538P
Description: as §1

[7] = tested on: S. epidermidis ATCC 33501; assay: Whole cell antimicrobial screen, MIC; format: cell-based; details: Staphylococcus epidermidis, ATCC33501
Description: as §1

[8] = tested on: C. albicans ATCC 10231; assay: Whole cell antimicrobial screen, MIC; format: cell-based; details: Candida albicans, ATCC10231
Description: as §1

[9] = tested on: S. saprophyticus ATCC 35552; assay: Whole cell antimicrobial screen, MIC; format: cell-based; details: Staphylococcus saprophyticus, ATCC35552
Description: as §1

[10] = tested on: E. faecium ATCC 6569; assay: Whole cell antimicrobial screen, MIC; format: cell-based; details: Enterococcus faecium, ATCC6569
Description: as §1

[11] = tested on: isoleucyl-tRNA synthetase; details: Gram positive bacterial pathogens such as Staphylococcus aureus; cited from earlier work
[12] = tested on: B. subtilis ATCC 6633; assay: Whole cell antimicrobial screen, MIC; format: cell-based; details: Bacillus subtilis, ATCC6633
Description: as §1

[13] = tested on: K. pneumonia ATCC 4352; assay: Whole cell antimicrobial screen, MIC; format: cell-based; details: Klebsiella pneumoniae, ATCC4352
Description: as §1

[14] = tested on: M. catarrhalis ATCC 25240; assay: Whole cell antimicrobial screen, MIC; format: cell-based; details: Moraxella catarrhalis, ATCC25240
Description: as §1

[15] = tested on: H. influenza ATCC 49247; assay: Whole cell antimicrobial screen, MIC; format: cell-based
Description: as §1

Sequence of E. Coli. IleRS (isoleucyl-tRNA synthetase) (P00956 whole entry): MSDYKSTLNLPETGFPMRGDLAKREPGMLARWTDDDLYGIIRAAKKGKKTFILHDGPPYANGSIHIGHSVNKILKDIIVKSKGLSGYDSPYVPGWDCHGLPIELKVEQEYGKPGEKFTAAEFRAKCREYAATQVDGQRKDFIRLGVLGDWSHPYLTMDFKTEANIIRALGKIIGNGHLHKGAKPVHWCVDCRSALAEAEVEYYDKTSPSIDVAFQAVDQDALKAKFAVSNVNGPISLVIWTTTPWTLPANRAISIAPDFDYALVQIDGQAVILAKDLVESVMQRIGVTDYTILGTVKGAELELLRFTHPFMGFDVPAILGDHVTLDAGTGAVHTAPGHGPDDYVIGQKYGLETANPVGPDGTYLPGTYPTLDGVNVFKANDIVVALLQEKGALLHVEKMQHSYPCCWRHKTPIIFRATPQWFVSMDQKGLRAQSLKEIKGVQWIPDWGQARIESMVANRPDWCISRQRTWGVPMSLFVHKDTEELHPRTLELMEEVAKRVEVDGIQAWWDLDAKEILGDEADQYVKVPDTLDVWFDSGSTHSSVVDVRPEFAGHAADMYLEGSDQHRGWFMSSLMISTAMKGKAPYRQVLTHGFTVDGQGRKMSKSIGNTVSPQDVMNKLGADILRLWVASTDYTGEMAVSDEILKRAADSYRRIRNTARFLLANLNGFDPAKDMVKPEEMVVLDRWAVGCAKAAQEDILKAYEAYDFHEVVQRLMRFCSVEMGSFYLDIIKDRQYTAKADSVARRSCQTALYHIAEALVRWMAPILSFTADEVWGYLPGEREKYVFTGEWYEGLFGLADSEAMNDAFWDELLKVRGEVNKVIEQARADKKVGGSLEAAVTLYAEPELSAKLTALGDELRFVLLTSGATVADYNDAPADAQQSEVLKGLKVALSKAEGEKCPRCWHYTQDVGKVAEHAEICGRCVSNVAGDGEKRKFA

| Compound | IC50 [1] [nM] | MIC [2] [µg/mL] | MIC [3] [µg/mL] | MIC [4] [µg/mL] | MIC [5] [µg/mL] | MIC [6] [µg/mL] | MIC [7] [µg/mL] | MIC [8] [µg/mL] | MIC [9] [µg/mL] | MIC [10] [µg/mL] | inhibition of isoleucyl adenylate formation [11] | MIC [12] [µg/mL] | MIC [13] [µg/mL] | MIC [14] [µg/mL] | MIC [15] [µg/mL] |
| --- | --- | --- | --- | --- | --- | --- | --- | --- | --- | --- | --- | --- | --- | --- | --- |
| CC[C@H](C)[C@H](N)C(=O)NS(=O)(=O)OC[C@H]1O[C@@H](CCn2nnc(-c3ccc(C#Cc4ccc([N+](=O)[O-])o4)cc3)n2)[C@H](O)[C@@H]1O [II, [S-(R*,R*)]-3,6-anhydro-1,2-dideoxy-1-[5-[4-[(5-nitro-2-furyl)ethynyl]phenyl]-2H-tetrazol-2-yl]-D-allo-heptitol 7-(2-amino-3-methyl-1-oxopentyl)sulfamate] | 1 | 16 (≈ 25.3 µM) | 16 (≈ 25.3 µM) | 256 (≈ 404 µM) | 8 (≈ 12.6 µM) | 4 (≈ 6.31 µM) | 1 (≈ 1.58 µM) | 100 (≈ 158 µM) | 8 (≈ 12.6 µM) | 64 (≈ 101 µM) |  |  |  |  |  |
| CC(=CC(=O)OCCCCCCCCC(=O)O)CC1OCC(CC2OC2C(C)C(C)O)C(O)C1O (stereo not drawn) [Pseudomonic acid A] |  |  |  |  |  |  |  |  |  |  | inhibits isoleucyl adenylate formation |  |  |  |  |
| CC[C@H](C)[C@H](N)C(=O)NS(=O)(=O)OC[C@H]1O[C@@H](CCn2nnc(-c3ccc(-c4ccccc4C)cc3)n2)[C@H](O)[C@@H]1O [XIX] | 5.3 |  |  | 300 (≈ 510 µM) | 50 (≈ 84.9 µM) | 50 (≈ 84.9 µM) | 5 (≈ 8.49 µM) | 500 (≈ 849 µM) | 25 (≈ 42.5 µM) | 200 (≈ 340 µM) |  | 50 (≈ 84.9 µM) | 100 (≈ 170 µM) | 50 (≈ 84.9 µM) |  |
| CC[C@H](C)[C@H](N)C(=O)NS(=O)(=O)OC[C@H]1O[C@@H](CCn2nnc(-c3ccc(Oc4ccc(C(=O)OCc5ccccc5)cc4)cc3)n2)[C@H](O)[C@@H]1O [XI] | 109 | 50 (≈ 69 µM) | 5 (≈ 6.9 µM) | > 500 | 25 (≈ 34.5 µM) | 10 (≈ 13.8 µM) | 5 (≈ 6.9 µM) | > 500 | 10 (≈ 13.8 µM) | 25 (≈ 34.5 µM) |  |  |  |  | 25 (≈ 34.5 µM) |
| CC[C@H](C)[C@H](N)C(=O)NS(=O)(=O)OC[C@H]1O[C@@H](CCn2nnc(-c3ccc(-c4ccccc4C)c(C)c3)n2)[C@H](O)[C@@H]1O [XXII] | 11 | 25 (≈ 41.5 µM) | 10 (≈ 16.6 µM) | 200 (≈ 332 µM) | 25 (≈ 41.5 µM) | 25 (≈ 41.5 µM) | 5 (≈ 8.3 µM) | > 500 | 10 (≈ 16.6 µM) | 100 (≈ 166 µM) |  | 25 (≈ 41.5 µM) | 100 (≈ 166 µM) | 50 (≈ 83 µM) |  |
| CC[C@H](C)[C@H](N)C(=O)NS(=O)(=O)OC[C@H]1O[C@@H](CCn2nnc(N3CCN(c4ccccc4)CC3)n2)[C@H](O)[C@@H]1O [XXIV] | 1.3 |  |  | > 400 | > 400 | 400 (≈ 686 µM) | 50 (≈ 85.8 µM) | 500 (≈ 858 µM) | 400 (≈ 686 µM) | 400 (≈ 686 µM) |  | 400 (≈ 686 µM) | 400 (≈ 686 µM) | 400 (≈ 686 µM) |  |
| CC[C@H](C)[C@H](N)C(=O)NS(=O)(=O)OC[C@H]1O[C@@H](CCn2nnc(-c3ccc(-c4ccccc4)c(C)c3)n2)[C@H](O)[C@@H]1O [XX] | 0.6 |  |  | 500 (≈ 849 µM) | 50 (≈ 84.9 µM) | 50 (≈ 84.9 µM) | 25 (≈ 42.5 µM) | > 500 | 25 (≈ 42.5 µM) | 100 (≈ 170 µM) |  | 50 (≈ 84.9 µM) | 50 (≈ 84.9 µM) | 25 (≈ 42.5 µM) | > 500 |
